Columns and labels:
Format in all cases: binding
antisense TERRA [1] = assay: FP assay, FITC labeled TRF2 peptide with antisense TERRA; conditions: 10 nM FITC peptide
Protocol: (§1) All the nucleic acids, peptides and chemicals were dissolved in buffer containing 20 mM HEPES pH7.5, 150 mM salt (KCl, NaCl, LiCl) at the stock concentration of 1 mM. For peptide and nucleic acid interactions, 25μL of each nucleic acids with a sequential twofold dilutions starting from 50 μM was added into each well of 96-well plate followed by adding 25μL of 10 nM FITC labeled TRF2 peptide. For compounds and nucleic acid interactions, 20μL of each compounds with a sequential twofold dilutions starting from 50 μM were added into each well of 96-well plate followed by adding 5μL of 20 ng/mL tRNA and 25μL of 10 nM FAM labeled nucleic acids. For inhibition assay, 5μL FITC labeled TRF2 GAR peptide (10 nM final concentration) and 10 μL oligos (5 μM final concentration) were mixed, followed by adding 5μL of each compound with a sequential twofold dilutions starting from 50 μM into each well of 384-well plate. All components were mixed thoroughly, and the plate was incubated at room temperature for 1 h before placing in an Envision Plate Reader for reading at 495/520 nm. All data curves were fitted using Prism 8.0.

antisense TeloDNA [2] = assay: FP assay, FITC labeled TRF2 peptide with antisense TeloDNA; conditions: 10 nM FITC peptide
Protocol: as §1

TeloDNA = assay: FP assay, FITC labeled TRF2 peptide with TeloDNA; conditions: 10 nM FITC peptide
Protocol: as §1

TERRA = assay: FP assay, FITC labeled TRF2 peptide with TERRA; conditions: 10 nM FITC peptide
Protocol: as §1

antisense TeloDNA [3] = assay: FP assay, full-length TRF2 protein with FAM labeled antisense TeloDNA; conditions: FAM labeled oligo
antisense TERRA [4] = assay: FP assay, full-length TRF2 protein with FAM labeled antisense TERRA; conditions: FAM labeled oligo

Substance	peptide binding to antisense TERRA (antisense TERRA [1])	peptide binding to antisense TeloDNA (antisense TeloDNA [2])	peptide binding to TeloDNA (TeloDNA)	peptide binding to TERRA (TERRA)	full-length TRF2 affinity for antisense TeloDNA (antisense TeloDNA [3])	full-length TRF2 affinity for antisense TERRA (antisense TERRA [4])
AAAGAAASASSGAAAAGAHEPGLGGPAEAGAGEAA [Ala mutant, control peptide with each of the 10 arginine residues mutated to alanine]	Neither TRF2 GAR nor the Ala mutant showed any detectable binding	Neither TRF2 GAR nor the Ala mutant showed any detectable binding	no detectable binding	no detectable binding	–	–
full-length TRF2 protein: purified recombinant full-length TRF2 protein	–	–	–	–	lacks measurable affinity	lacks measurable affinity

From article PMC7876106 (Scientific Reports, 2021)
